Earlier results, collected in US6414139B1, “Silicon amphiphilic compounds and the use thereof” (Imarx Therapeutics, Inc., priority 1996, dated 2002).

Conditions: gel state to liquid crystalline state; CRC Handbook of Lipid Bilayers p. 139

Row | Structure (SMILES) | Main Phase Transition Temperature [°C]
1 | CCCCCCCCCCCCCCCCCCCCCCC(=O)OC[C@H](COP(=O)([O-])OCC[N+](C)(C)C)OC(=O)CCCCCCCCCCCCCCCCCCCCCC [1,2-(23:0)] | 79.5
2 | CCCCCCCCCCCCCCCCCCCCCCCC(=O)OC[C@H](COP(=O)([O-])OCC[N+](C)(C)C)OC(=O)CCCCCCCCCCCCCCCCCCCCCCC [1,2-(24:0)] | 80.1
